In the supplement of paper PMC10307832:

Assays:
Assay in all cases: relative viability (nuclei count vs DMSO), 5 days (fraction); higher = more cells survive
[1] = compound: CNC(=O)c1ccccc1Sc1ccc2c(/C=C/c3ccccn3)n[nH]c2c1 [Axitinib] + Cc1nc(NC(=O)N2CCC[C@H]2C(N)=O)sc1-c1ccnc(C(C)(C)C(F)(F)F)c1 [Alpelisib] (partner 2 µM)
Procedure, shortened: (§1)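 For relative viability, nuclei counts in treated wells were divided by those in vehicle wells. Lung cancer cell lines had been pin-tool dosed in 1536-well plates the day after seeding and cultured for 5 days, then fixed and stained in one step (final 0.05% Triton X-100, 1% formaldehyde, 1 ug/ml Hoechst) and imaged at 4×. Doses were one drug alone or a fixed anchor-drug dose plus five library-drug doses (not always all listed) in √10 steps, and values are duplicate-plate medians.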

[2] = compound: CNC(=O)c1ccccc1Sc1ccc2c(/C=C/c3ccccn3)n[nH]c2c1 [Axitinib] + N=C(N)NC(=N)NCCc1ccccc1 [Phenformin] (partner 250 µM)
Procedure, shortened: as §1

[3] = compound: Nc1nc(Nc2ccc3c(c2)CC[C@@H](N2CCCC2)CC3)nn1-c1cc2c(nn1)-c1ccccc1CCC2 [Bemcentinib] + CC(C)C[C@H](NC(=O)[C@H](Cc1ccccc1)NC(=O)c1cnccn1)B(O)O [Bortezomib] (partner 0.002 µM)
Procedure, shortened: as §1

[4] = compound: Nc1nc(Nc2ccc3c(c2)CC[C@@H](N2CCCC2)CC3)nn1-c1cc2c(nn1)-c1ccccc1CCC2 [Bemcentinib] + Nc1ncn([C@H]2C[C@H](O)[C@@H](CO)O2)c(=O)n1 [Decitabine] (partner 2 µM)
Procedure, shortened: as §1

Question: Which results are given for NCI-H650?
Answer: relative viability ([1]; first compound 0.005 µM): 1.19; relative viability ([1]; first compound 0.01581 µM): 1.13; relative viability ([1]; first compound 0.05 µM): 0.868; relative viability ([1]; first compound 0.1581 µM): 1.02; relative viability ([1]; first compound 0.5 µM): 1.24; relative viability ([2]; first compound 0.005 µM): 0.462; relative viability ([2]; first compound 0.01581 µM): 0.434; relative viability ([2]; first compound 0.05 µM): 0.483; relative viability ([2]; first compound 0.1581 µM): 0.424; relative viability ([2]; first compound 0.5 µM): 0.471; relative viability ([3]; first compound 0.04 µM): 0.68; relative viability ([3]; first compound 0.1265 µM): 0.855; relative viability ([3]; first compound 0.4 µM): 0.92; relative viability ([3]; first compound 1.265 µM): 0.628; relative viability ([3]; first compound 4 µM): 0.701; relative viability ([4]; first compound 0.04 µM): 0.269; relative viability ([4]; first compound 0.1265 µM): 0.301; relative viability ([4]; first compound 0.4 µM): 0.282; relative viability ([4]; first compound 1.265 µM): 0.294; relative viability ([4]; first compound 4 µM): 0.347
